# Entries after “also recorded” stand apart in the source; their conditions may differ. Non-standard residues stand in square brackets, D forms with d. Residues, ends and D or L forms follow the SMILES beside them.
# Legend:
# [1] = test system: myosin regulatory light chain (RLC) phosphorylation in EA.hy926 endothelial cells; experiment: Thrombin-induced myosin RLC phosphorylation in endothelial cells (immunoblotting); type: cell-based; settings: peptide 100 μM, 1 hr; thrombin 100 nM, 20 min
# Procedure: FIG. 4. Inhibition of the thrombin-induced RLC phosphorylation in EA.hy926 endothelial cells by PIK2, PIK7 ([D-Lys^12]-MLC11-19), or MLC11-19 MLCK peptide inhibitors. Inhibitors were added up to 100 μM, n=3-5. p<0.05 for PIK2, PIK7 vs control (0, 20 min). p<0.05 for PIK2 vs PIK7 (0, 20 min).
# Inhibitory effects of the claimed peptide (PIK7), its prototype (PIK2), and analogue (MLC11-19) were compared in an assay of myosin regulatory light chain (RLC) phosphorylation in vitro as described in Example 4.
# Antagonistic effects of MLCK peptide inhibitors on the thrombin-mediated RLC phosphorylation in EA.hy926 endothelial cells were tested as follows. The cells were grown in 35-mm dishes in DMEM at 37° C. and the 5% CO2 atmosphere until the monolayer formed. Then, the cells were serum-starved while simultaneously incubated with 100 μM MLCK inhibitors at 37° C., 5% CO2 for 1 hr (control, 0 min). Next, the cells were stimulated with 100 nM thrombin for 20 min and collected on ice, i.e. the medium was decanted, the cells were washed with cold PBS and lysed with 100 μL of Laemmli denaturing electrophoresis buffer. The sample proteins were separated by SDS-PAGE and proceeded to immunoblotting with anti-total, anti-monophosphorylated, and anti-diphosphorylated RLC. […]
# [2] = Acute toxicity in mice, single injection; type: in vivo; settings: mouse, in vivo; mice, Table 3; read-out: Toxicity LD50 in mice
# Procedure: (§1) The study was conducted in 82 BALB/c mice (both males and females, body weight 18-24 g) obtained from the animal facility of the Scientific Center for Biomedical Technologies of the Federal Medico-Biological Agency of the Russian Federation (SCBMT). The animals were certified and otherwise healthy. The animals were kept in T-3 cages (5-10 animals per cage) with artificial 12 hrs light-dark cycles and 16× per hour forced air ventilation, temperature of 20-22° C. and 50-65% humidity on wood chips sterilized by hot air. The animals had free access to drinking water and PK-120-1 mouse cubes (GOST P50258-92; Laboratorsnab LLC, Russia).
# (§2) PIK2 and PIK7 peptides were dissolved in water and administered to mice as a single intraperitoneal injection. The animals were followed for 14 days after peptide injections. An increasing dosage scheme was applied where each tested dose surpassed the previous dose by 50%. The lowest dose of the active substance was determined that caused animal death.
# BALB/c mice = experiment: Acute toxicity in mice, single injection; type: in vivo
# Procedure: as §1, §2
smiles,measurement,setting,value
"C[C@H](NC(=O)[C@H](C)NC(=O)[C@H](CCCNC(=N)N)NC(=O)[C@@H](CCCCN)NC(=O)[C@@H](N)CCCCN)C(=O)N[C@@H](CCCNC(=N)N)C(=O)N[C@@H](C)C(=O)N[C@H](C(=O)N[C@@H](CO)C(N)=O)[C@@H](C)O [PIK7, H-Lys-D-Lys-Arg-Ala-Ala-Arg-Ala-Thr-Ser-NH2] (H-K[dK]RAARATS-NH2)",inhibition of thrombin-induced RLC phosphorylation,[1],"inhibited myosin RLC phosphorylation in endothelial cells with efficacy higher than that of either the prototype, PIK2, or the analogue, MLC11-19; also recorded: inhibits RLC phosphorylation in endothelial cells and its efficacy is superior to both the prototype, PIK2, and the analogue, MLC11-19"
same,LD50,[2],> 1000 mg/kg
same,"lowest lethal dose, fold higher than with PIK2","BALB/c mice; BALB/c mice, single intraperitoneal injection",47 fold
same,lowest dose of the active substance that caused animal death,"BALB/c mice; BALB/c mice, single intraperitoneal injection, followed 14 days",1274 mg/kg
same,signs after a toxic dose,"BALB/c mice; mice, single intraperitoneal injection of a toxic dose",movement retardation and death within the following 24 hrs

# From patent US20210340178A1, “NONAPEPTIDE PREVENTING INCREASED HYPERPERMEABILITY OF VASCULAR ENDOTHELIUM” (FEDERALNOYE GOSUDARSTVENNOE BUDGETNOE UCHREZHDENIE …, priority 2018, published 2021)
